Several values for one entry are separate records, joined by “and”; a condition that tells them apart may be missing. Equal values may be shown once.
Assays:
[1] = test system: Th9 signature genes (Irf4, Batf3, Batf, and Il9); test: Quantitative RT-PCR of Th9 signature genes (Figure 1J); assay type: cell-based, mouse
Procedure: Total RNA was extracted from T cells using RNAex Pro Reagent (AG, catalog AG21102) following the manufacturer’s instructions. First-strand complementary DNA (cDNA) was synthesized using the Hifair III 1st Strand cDNA Synthesis SuperMix (YEASEN, catalog 11137ES10). Quantitative real-time PCR (qRT-PCR) was conducted on a QuantStudio 3 Real-Time PCR System (Thermo Fisher Scientific) using ChamQ Universal SYBR qPCR Master Mix (Vazyme, catalog Q711-02) and gene-specific primers (Tsingke Biotech).
For normalization, mouse samples were referenced to Gapdh or Actb, and human samples were normalized to GAPDH. Relative gene expression was calculated using the ΔΔCt method. Primer sequences are listed in Supplemental Table 5.

[2] = test system: Raji lymphoma cells
Procedure: For infection, human T cells were activated for 40 hours with plate-bound anti-CD3 (BioLegend, clone OKT3, 5 μg/mL) and soluble anti-CD28 antibodies (BioLegend, clone CD28.2, 2 μg/mL) antibodies and then resuspended in viral supernatant (MOI = 5) supplemented with recombinant human IL-2 (100 U/mL) and polybrene (10 μg/mL). The cell-virus mixture was subjected to spinoculation at 550g for 2 hours at room temperature, followed by incubation for 24 hours. Transduced CAR T cells were harvested on days 5 or 7 after activation for downstream functional assays.
The cytotoxic activity of CD19-targeting CAR T cells was evaluated using a luciferase-based bioluminescence assay. Raji cells stably expressing firefly luciferase (ffLuc) were resuspended in RPMI 1640 medium supplemented with 10% FBS and seeded into 24-well plates. CAR T cells were added at various effector-to-target (E:T) ratios, while tumor-only wells were included as negative controls. After 20 hours of coculture, 20,000 cells from each tumor-only control well were harvested, washed with PBS, resuspended in 100 μL of lysis buffer, and transferred to a black 96-well plate. Luminescence intensity was measured using a multimode plate reader, and the percentage of specific lysis was calculated as follows: % Cytotoxicity = 1 – (luminescence of coculture well/luminescence of tumor-only control well).

[3] = test system: Th17 cells; test: Th17 polarization, IL-17 by flow cytometry (Figure 1H); assay type: cell-based, mouse
Procedure: (§1) Naive CD4^+ T cells were isolated from the spleens of C57BL/6J or CD45.1^+ OT-II mice using the MojoSort Mouse CD4 Naive T Cell Isolation Kit (BioLegend, catalog 480040), following the manufacturer’s protocol. Purified cells were cultured in RPMI-1640 medium supplemented with 10% FBS, 1% penicillin-streptomycin, and 0.1% β-mercaptoethanol (Gibco, catalog 21985023).
(§2) T cell polarization was initiated under plate-bound anti-CD3 (2 μg/mL, clone 17A2, BioXCell, catalog BE0002) and soluble anti-CD28 (1 μg/mL, clone 37.51, BioXCell, catalog BE0015-1) stimulation, with the addition of cytokines and neutralizing antibodies specific to each subset. For Th9 cells, these included IL-4 (10 ng/mL, Peprotech, catalog 400-04), TGF-β (1 ng/mL, EPOTO Biotech, catalog HF-2021), anti–IL-12 (5 μg/mL, clone C17.8, BioXCell, catalog BE0051), and anti–IFN-γ (10 μg/mL, clone XMG1.2, BioXCell, catalog BE0055); for Th1 cells, these included IL-12 (10 ng/mL, GenScript, catalog Z03211-50) and anti–IL-4 (5 μg/mL, clone 11B11, BioXCell, catalog BE0045); for Th2 cells, these included IL-4 (50 ng/mL), anti–IFN-γ (20 μg /mL), anti–IL-12 (5 μg/mL), Th17 cells: IL-6 (20 ng/mL, EPOTO Biotech, catalog MF-1006), TGF-β (1 ng/mL), IL-1β (10 ng/mL, Peprotech, catalog AF-211-11B), anti–IFN-γ (10 μg/mL), anti–IL-12 (5 μg/mL), and anti–IL-4 (5 μg/mL); and for Tregs, these included TGF-β (3 ng/mL). […]

[4] = test system: human Th9 cells; test: Intracellular ATP of human Th9 cells (Figure 8E); assay type: cell-based; settings: result in words
Procedure: For Th9 polarization, cultures were supplemented with IL-4 (10 ng/mL, PeproTech, catalog AF-200-04), TGF-β (1 ng/mL), and neutralizing anti–IFN-γ monoclonal antibody (10 μg/mL, clone B27, BioXcell, catalog BE0245). After 3 days of initial culture, cells were either collected for downstream assays or continued in extended culture with refreshed cytokines to maintain lineage commitment without antibodies. Th9 cells were collected at days 4, 5, and 6 for subsequent in vitro assays. For adoptive transfer studies, day 4–cultured Th9 cells were washed and prepared for intravenous injection.
Intracellular adenosine triphosphate (ATP) levels were measured using a chemiluminescent ATP assay kit (Beyotime, catalog S0026) according to the manufacturer’s protocol. Briefly, cells were lysed and incubated with the luciferase-based detection reagent, and the resulting luminescent signal was detected using an Infinite M200 multimode microplate reader (TECAN). ATP concentrations were calculated based on a standard curve and normalized to cell number or protein content where applicable.

[5] = test system: Treg cells; test: Treg polarization, Foxp3 by flow cytometry (Figure 1I); assay type: cell-based, mouse
Procedure: as §1, §2

[6] = EpA-treated Th9, ΔΔCt, individual replicates, n = 3
[7] = EpA 10 μM, individual replicates, n = 4

anteiso-C15 Leu7 surfactin [EpA]
Batf3 relative mRNA expression [1, 6]: 1.532 and 2.109 and 2.3014 | Batf relative mRNA expression [1, 6]: 1.713 and 1.736 and 1.548 | Il9 relative mRNA expression [1, 6]: 23.4757 and 53.1262 and 48.3738 | Irf4 relative mRNA expression [1, 6]: 1.345 and 1.289 and 1.126 | Th9-associated transcription factors and effector cytokines ([1]; result in words): significantly upregulated | cytotoxicity against Raji cells [2]: significantly greater cytotoxicity | IL-17 expression under Th17 polarization [3, 7]: 31.3 and 30.4 and 30.7 and 33.1 | effect on Th17 polarization ([3]; result in words): did not affect | ATP production, human Th9 [4]: increased | Foxp3 expression under Treg polarization [5, 7]: 47.3 and 45.9 and 45.6 and 47.5 | effect on Treg polarization ([5]; result in words): did not affect

— article PMC12867150, “A fungi-derived cyclic peptide enhances Th9-mediated antitumor immunity by targeting ZAP70 and SREBP1” (The Journal of Clinical Investigation, 2025)
